Reference: patent publication US6403648B2, “Alkylaminoalkyl-sulfonyl-terminated β-alanineamide amino-diol compounds for treatment of hypertension” (G. D. Searle & Co., priority 1993, dated 2002)

Target: T1, human renin (Homo sapiens, UniProt P00797)
T1 construct: purchased National Institute for Biological Standards, London
T1 sequence (P00797 67-406): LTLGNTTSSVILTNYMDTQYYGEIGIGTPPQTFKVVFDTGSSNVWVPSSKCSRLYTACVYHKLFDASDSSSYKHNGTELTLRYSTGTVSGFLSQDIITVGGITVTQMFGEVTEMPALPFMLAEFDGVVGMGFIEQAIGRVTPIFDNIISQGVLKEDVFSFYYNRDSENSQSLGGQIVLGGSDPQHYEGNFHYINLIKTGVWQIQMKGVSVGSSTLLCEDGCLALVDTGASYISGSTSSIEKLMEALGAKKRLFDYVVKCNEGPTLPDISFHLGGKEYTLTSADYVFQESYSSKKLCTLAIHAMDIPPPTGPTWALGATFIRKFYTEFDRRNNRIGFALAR
Test: Human renin inhibition in vitro
Format: biochemical
Conditions: human renin with human plasma as substrate, pH 7.4, 37° C., two hours; angiotensin I by radioimmunoassay; read-out: inhibit human renin in vitro, IC50
Method: Compounds of Formula I were evaluated as inhibitors of human renin in an in vitro assay, as follows: This human renin inhibition test has been previously described in detail [Papaioannou et al., Clinical and Experimental Hypertension, A7(9), 1243-1257 (1985)]. Human renin was obtained from the National Institute for Biological Standards, London. An incubation mixture was prepared containing the following components: in a total volume of 0.25 mL: 100 mM Tris-acetate buffer at pH 7.4, 25×10^−6 Goldblatt units of renin, 0.05 mL of plasma from human volunteers taking oral contraceptives, 6.0 mM Na-EDTA, 2.4 mM phenylmethyl sulfonyl fluoride, 1.5 mM 8-hydroxyquinoline, 0.4 mg/mL bovine serum albumin (BSA), and 0.024 mg/mL neomycin sulfate. This mixture was incubated for two hours at 37° C. in the presence or absence of renin inhibitors. The produced angiotensin I was determined by radioimmunoassay (New England Nuclear kit). Test compounds to be assayed were dissolved in DMSO and diluted with 100 mM Tris-acetate buffer at pH 7.4 containing 0.5% BSA to the appropriate concentration. The final concentration of organic solvent in the reaction mixture was less than 1%. Control incubations at 37° C. were used to correct for effects of organic solvent on renin activity. The in vitro enzymatic conversion of angiotensinogen to angiotensin I was inhibited by test compounds of the invention.

IC50: 0.044 µM
SMILES: CC(C)C[C@H](O)[C@H](O)[C@H](CC1CCCCC1)NC(=O)[C@H](C)CNC(=O)C(Cc1ccccc1)CS(=O)(=O)CCN(C)C (stereo partly shown) [Example 1]
